Where two headings read alike, the source gives them in different places.
Columns and labels:
[1] = biological target: T1, Drosophila OR47a (Drosophila melanogaster, UniProt P81921); test: Calcium ion fluorescence (GCaMP6) assay, OR47a stable HEK293 cell line; type: cell-based; conditions: for response intensity / Average response / OR47a response (VUAA1-normalized) at 1 μM / OR47a response (VUAA1-normalized) at 10 μM / OR47a response (VUAA1-normalized) at 100 μM: OR47a cell line; for response intensity: of VUAA1 response; for Average response: mean of biological replicates; for DF norm AVERAGE OR47a: threshold 0.05, below shown as 0
T1 construct: expressed in transfected cells
T1 sequence (P81921 1-385): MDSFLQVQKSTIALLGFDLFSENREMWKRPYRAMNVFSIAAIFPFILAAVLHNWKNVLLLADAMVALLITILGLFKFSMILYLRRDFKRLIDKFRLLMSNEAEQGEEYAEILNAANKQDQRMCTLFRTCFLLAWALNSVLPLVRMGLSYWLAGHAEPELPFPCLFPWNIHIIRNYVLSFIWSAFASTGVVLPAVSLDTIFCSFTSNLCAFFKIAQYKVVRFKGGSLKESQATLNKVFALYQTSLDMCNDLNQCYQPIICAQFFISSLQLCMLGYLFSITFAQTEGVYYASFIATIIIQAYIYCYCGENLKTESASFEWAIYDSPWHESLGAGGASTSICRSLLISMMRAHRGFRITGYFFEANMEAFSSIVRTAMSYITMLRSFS
T1 sequence (Q9VNB5 1-486 partner): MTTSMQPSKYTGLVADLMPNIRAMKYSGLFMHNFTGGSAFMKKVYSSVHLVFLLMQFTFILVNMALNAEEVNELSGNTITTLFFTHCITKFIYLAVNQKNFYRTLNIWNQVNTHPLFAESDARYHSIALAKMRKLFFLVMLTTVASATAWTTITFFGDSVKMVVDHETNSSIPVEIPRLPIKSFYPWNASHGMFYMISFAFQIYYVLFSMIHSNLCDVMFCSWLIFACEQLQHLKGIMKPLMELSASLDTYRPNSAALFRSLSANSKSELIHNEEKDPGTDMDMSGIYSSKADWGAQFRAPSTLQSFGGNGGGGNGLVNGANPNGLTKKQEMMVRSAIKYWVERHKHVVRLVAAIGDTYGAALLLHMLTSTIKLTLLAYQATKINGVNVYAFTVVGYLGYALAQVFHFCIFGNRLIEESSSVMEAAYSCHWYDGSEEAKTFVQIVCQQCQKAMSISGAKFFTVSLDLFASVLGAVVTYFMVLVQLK
Outline: (§1)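 Responses are VUAA1-normalized ΔF: each VOC-evoked calcium signal, (FMAX−F0)/F0 over 30 s after injection, divided by the same line's mean 50 µM VUAA1 response. Cells were doxycycline-induced HEK293 with GCaMP6 and the cognate Drosophila OR, in HEPES buffer pH 7.3; ligands tested 0.01–100 μM.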

[2] = biological target: T2, Drosophila OR71a (Drosophila melanogaster, UniProt Q9VUK5); test: Calcium ion fluorescence (GCaMP6) assay, OR71a stable HEK293 cell line; type: cell-based; conditions: for Average response / OR71a response (VUAA1-normalized) at 1 μM / OR71a response (VUAA1-normalized) at 10 μM / OR71a response (VUAA1-normalized) at 100 μM: OR71a cell line; for Average response: VUAA1-normalized response, mean of biological replicates; for DF norm AVERAGE OR71a: threshold 0.05, below shown as 0
T2 construct: expressed in transfected cells
T2 sequence (Q9VUK5 1-378): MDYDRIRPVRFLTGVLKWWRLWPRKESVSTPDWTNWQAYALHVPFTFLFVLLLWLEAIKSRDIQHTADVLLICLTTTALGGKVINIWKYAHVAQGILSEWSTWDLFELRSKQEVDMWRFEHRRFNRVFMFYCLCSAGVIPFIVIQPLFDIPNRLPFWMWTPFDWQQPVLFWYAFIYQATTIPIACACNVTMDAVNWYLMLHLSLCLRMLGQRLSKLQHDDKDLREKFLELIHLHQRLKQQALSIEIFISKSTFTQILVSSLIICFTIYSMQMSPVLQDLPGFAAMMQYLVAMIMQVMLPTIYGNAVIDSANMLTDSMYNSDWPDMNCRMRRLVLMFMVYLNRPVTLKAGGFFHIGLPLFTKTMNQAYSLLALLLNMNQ
T2 sequence (Q9VNB5 1-486 partner): T1 sequence (Q9VNB5 1-486 partner)
Outline: as §1

[3] = HEK293, read-out: OR47a Average response (VUAA1-normalized)
[4] = HEK293, read-out: OR47a response (VUAA1-normalized response)
[5] = ligand concentration 1 (unit not given)
[6] = ligand concentration 10 (unit not given)
[7] = ligand concentration 100 (unit not given)
[8] = HEK293, read-out: OR71a response (VUAA1-normalized response)

Compound	Average response ([1]; odorant cc. 1 µM)	Average response ([1]; odorant cc. 10 µM)	Average response ([1]; odorant cc. 100 µM)	DF norm AVERAGE OR47a [1, 5]	DF norm AVERAGE OR47a [1, 6]	DF norm AVERAGE OR47a [1, 7]	Average response ([2]; cc. 1 µM)	Average response ([2]; cc. 10 µM)	Average response ([2]; cc. 100 µM)	DF norm AVERAGE OR71a [2, 5]	DF norm AVERAGE OR71a [2, 6]	DF norm AVERAGE OR71a [2, 7]	OR47a response (VUAA1-normalized) at 1 μM ([1]; VOC concentration 1 μM)	OR47a response (VUAA1-normalized) at 10 μM ([1]; VOC concentration 10 μM)	OR47a response (VUAA1-normalized) at 100 μM ([1]; VOC concentration 100 μM)	OR71a response (VUAA1-normalized) at 1 μM ([2]; VOC concentration 1 μM)	OR71a response (VUAA1-normalized) at 10 μM ([2]; VOC concentration 10 μM)	OR71a response (VUAA1-normalized) at 100 μM ([2]; VOC concentration 100 μM)	also measured
CC(=O)OCCC(C)C [isopentyl acetate]	0.00	0.12	0.18	0	0.1209	0.1752	0.0333	0.037	0.0218	0	0	0							activation at 1 µM [1, 3]: 0%; activation at 10 µM [1, 3]: 12%; activation at 100 µM [1, 3]: 18%; activation at 1 µM [1, 4]: 0%; activation at 10 µM [1, 4]: 12%; activation at 100 µM [1, 4]: 18%; response intensity ([1]; 10 μM): 12%; response intensity ([1]; 100 μM): 18%; activation at 1 µM [2, 8]: 0%; activation at 10 µM [2, 8]: 0%; activation at 100 µM [2, 8]: 0%
C=C(C)[C@H]1CC=C(C)CC1 [limonene]	0.0214	0.00	0.00	0	0	0	0.00	0.00	0.00	0	0	0							OR47a response (VUAA1-normalized response) ([1]; VOC concentration 1 μM): 0.00; OR47a response (VUAA1-normalized response) ([1]; VOC concentration 10 μM): 0.00; OR47a response (VUAA1-normalized response) ([1]; VOC concentration 100 μM): 0.00; OR71a response (VUAA1-normalized response) ([2]; VOC concentration 1 μM): 0.00; OR71a response (VUAA1-normalized response) ([2]; VOC concentration 10 μM): 0.00; OR71a response (VUAA1-normalized response) ([2]; VOC concentration 100 μM): 0.00
C=CC(C)(O)CCC=C(C)C (centres unmarked) [linalool]	0.00	0.0374	0.00	0	0	0	0.00	0.0443	0.0124	0	0	0	0.00	0.00	0.00	0.00	0.00	0.00	
Cc1cccc(C)c1 [m-xylene]	0.00	0.00	0.00	0	0	0	0.00	0.00	0.00	0	0	0	0.00	0.00	0.00	0.00	0.00	0.00	
COC(=O)c1ccccc1 [methyl benzoate]	0.0138	0.00	0.06	0	0	0.05948	0.00	0.00	0.0121	0	0	0	0.00	0.00	0.06	0.00	0.00	0.00	

Source: article PMC10709440, “High-throughput ligand profile characterization in novel cell lines expressing seven heterologous insect olfactory receptors for the detection of volatile plant biomarkers” (Scientific Reports, 2023)
